Test system: db/db (BKS.Cg-+Lepr^db/+Lepr^db) mice
Test: Plasma glucose after 21 days of administration in powder chow, alone or with pioglitazone
Type: in vivo
Conditions: male db/db mice, 21 days in powder chow, feeding condition; average (n=7) ± standard deviation
Protocol: Male db/db (BKS.Cg-+Lepr^db/+Lepr^db) mice (6 weeks of age, CLEA Japan (Tokyo, Japan)) were divided into 4 groups (n=7 in each group) comprising Group A to Group D. Group A had free access to CE-2 powder chow (CLEA Japan) for 21 days. […] Group C had free access to CE-2 powder chow (CLEA Japan) containing 0.0075% (w/w) of pioglitazone hydrochloride for 21 days. The dose of pioglitazone in Group C was calculated to be 17.7±0.6 (mean±SD) mg/kg body weight/day. […] During 21 days of administration of the powder chow, there were not significant differences in the administration amount of the powder chow in the above 4 groups. After 21 days of administration of the powder chow, blood samples were taken from the orbital veins of the mice by capillary pipette under feeding condition, and plasma glucose levels were enzymatically measured by using Autoanalyzer 7080 (Hitachi, Japan).
The values in the table means average (n=7)±standard deviation.

SMILES | Plasma Glucose [mg/dL]
N#Cc1ccccc1Cn1c(N2CCC[C@@H](N)C2)ncc(F)c1=O [Compound I, 2-[[2-[(3R)-3-Amino-piperidinyl)-5-fluoro-6-oxo-6H-pyrimidinyl]methyl]-benzonitrile] | 412.4 ± 77.5
CCc1ccc(CCOc2ccc(CC3SC(=O)NC3=O)cc2)nc1 (centres unmarked) [Pioglitazone, 5-{[4-(2-(5-ethyl-2-pyridyl)ethoxy)phenyl]-methyl}-thiazolidine-2,4-dione] | 394.4 ± 47.9

Reference: US20070060529A1, “ADMINISTRATION OF DIPEPTIDYL PEPTIDASE INHIBITORS” (priority 2005, published 2007)
